ChEMBL document CHEMBL5614367, “Hydroxamic acid hybrids: Histone deacetylase inhibitors with anticancer therapeutic potency” (Eur J Med Chem, 2023)

Experiments:
SW-620 = assay: Antiproliferative activity against human SW620 cells incubated for 48 hrs by colorimetric method; type: functional, cell-based; conditions: SW-620, 48 h
PC-3 = assay: Antiproliferative activity against human PC-3 cells incubated for 48 hrs by colorimetric method; type: functional, cell-based; conditions: PC-3, 48 h
NCI-H23 = assay: Antiproliferative activity against human NCI-H23 cells incubated for 48 hrs by colorimetric method; type: functional, cell-based; conditions: NCI-H23, 48 h
[1] = molecular target: T1, Protein deacetylase HDAC6 (Homo sapiens, UniProt Q9UBN7); assay: Inhibition of HDAC6 (unknown origin) incubated for 30 mins in presence of fluorimetric assay
T1 sequence (Q9UBN7 whole entry): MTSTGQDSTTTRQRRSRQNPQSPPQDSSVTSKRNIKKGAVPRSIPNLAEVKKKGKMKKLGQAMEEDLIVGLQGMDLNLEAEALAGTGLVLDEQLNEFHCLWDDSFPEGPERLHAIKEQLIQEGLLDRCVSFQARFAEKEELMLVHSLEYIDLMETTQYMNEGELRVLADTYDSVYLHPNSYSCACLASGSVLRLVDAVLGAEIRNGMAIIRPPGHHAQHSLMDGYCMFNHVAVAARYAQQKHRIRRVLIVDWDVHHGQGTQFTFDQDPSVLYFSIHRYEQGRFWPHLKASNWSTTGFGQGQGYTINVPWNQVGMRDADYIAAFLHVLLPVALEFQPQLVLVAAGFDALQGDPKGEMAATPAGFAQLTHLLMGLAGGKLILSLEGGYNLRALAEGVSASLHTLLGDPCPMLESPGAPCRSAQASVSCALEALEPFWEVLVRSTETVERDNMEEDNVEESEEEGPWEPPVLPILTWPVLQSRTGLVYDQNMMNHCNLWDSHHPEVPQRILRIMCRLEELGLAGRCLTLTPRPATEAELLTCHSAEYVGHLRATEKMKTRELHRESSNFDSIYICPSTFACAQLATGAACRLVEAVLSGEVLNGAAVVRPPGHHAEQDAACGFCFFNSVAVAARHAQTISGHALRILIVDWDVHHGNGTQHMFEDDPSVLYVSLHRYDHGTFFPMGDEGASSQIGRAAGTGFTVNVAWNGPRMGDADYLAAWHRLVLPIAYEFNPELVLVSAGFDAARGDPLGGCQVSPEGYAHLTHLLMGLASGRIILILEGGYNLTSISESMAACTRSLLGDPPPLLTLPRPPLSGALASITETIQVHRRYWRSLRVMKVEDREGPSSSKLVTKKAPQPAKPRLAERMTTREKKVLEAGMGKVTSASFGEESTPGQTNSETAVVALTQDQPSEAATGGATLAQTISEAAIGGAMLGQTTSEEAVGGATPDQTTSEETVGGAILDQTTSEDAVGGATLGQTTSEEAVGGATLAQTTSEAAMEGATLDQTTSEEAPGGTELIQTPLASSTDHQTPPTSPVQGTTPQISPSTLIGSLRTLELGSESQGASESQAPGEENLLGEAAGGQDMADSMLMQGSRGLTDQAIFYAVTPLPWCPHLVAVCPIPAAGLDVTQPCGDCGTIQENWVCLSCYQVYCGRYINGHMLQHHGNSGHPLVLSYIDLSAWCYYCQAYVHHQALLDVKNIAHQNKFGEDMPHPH

[2] = molecular target: T1, Protein deacetylase HDAC6; assay: Inhibition of HDAC6 (unknown origin)
HCT-116 [3] = assay: cells; type: functional, cell-based; conditions: Homo sapiens, HCT-116, 72 h
HCT 116 TP53(-/-) = assay: cells; type: functional, cell-based; conditions: Homo sapiens, 72 h
518A2 = assay: cells; type: functional, cell-based; conditions: Homo sapiens, 518A2, 72 h
Huh-7 = assay: cells; type: functional, cell-based; conditions: Homo sapiens, Huh-7, 72 h
HepG2 [4] = assay: cells; type: functional, cell-based; conditions: Homo sapiens, HepG2, 72 h
KYSE-450 = assay: Antiproliferative activity against human KYSE-450 cells; type: functional, cell-based
MGC-803 = assay: Antitumor activity against human MGC-803 cells xenografted in mouse assessed as tumor growth inhibition at 20 mg/kg relative to control; type: functional; conditions: read-out: TGI
HCT-116 [5] = assay: cells; conditions: Homo sapiens
HepG2 [6] = assay: Antiproliferative activity against human HepG2 cells measured after 24 hrs by MTT assay; type: functional, cell-based; conditions: HepG2, 24 h
HCT-116 [7] = assay: Antiproliferative activity against human HCT-116 cells measured after 24 hrs by MTT assay; type: functional, cell-based; conditions: HCT-116, 24 h
MCF7 [8] = assay: Antiproliferative activity against human MCF7 cells measured after 24 hrs by MTT assay; type: functional, cell-based; conditions: MCF7, 24 h
HeLa [9] = assay: Antiproliferative activity against human HeLa cells measured after 24 hrs by MTT assay; type: functional, cell-based
A549 [10] = assay: Antiproliferative activity against human A549 cells
MDA-MB-231 = assay: Antiproliferative activity against human MDA-MB-231 cells
HL-60 = assay: Antiproliferative activity against human HL-60 cells; type: functional, cell-based
A-375 = assay: Antiproliferative activity against human A-375 cells; type: functional, cell-based
SGC-7901 = assay: Antiproliferative activity against human SGC-7901 cells; type: functional, cell-based
MCF7 [11] = assay: cells; conditions: Homo sapiens
HepG2 [12] = assay: Antiproliferative activity against human HepG2 cells; type: functional, cell-based
Jurkat = assay: Antiproliferative activity against human Jurkat cells; type: functional, cell-based
Histone deacetylase 1 [13] = molecular target: T2, Histone deacetylase 1 (Homo sapiens, UniProt Q13547); assay: Inhibition of HDAC1 (unknown origin)
[14] = molecular target: Tyrosine-protein kinase JAK2 (Homo sapiens, UniProt O60674); assay: Inhibition of JAK2 (unknown origin)
K562 = assay: Antiproliferative activity against human K562 cells assessed as cell growth inhibition by SRB assay; type: functional
A549 [15] = assay: Antiproliferative activity against human A549 cells assessed as cell growth inhibition by SRB assay; type: functional
MCF7 [16] = assay: Antiproliferative activity against human MCF7 cells assessed as cell growth inhibition by SRB assay; type: functional
HeLa [17] = assay: Antiproliferative activity against human HeLa cells assessed as cell growth inhibition by SRB assay; type: functional
Histone deacetylase 1 [18] = molecular target: T2, Histone deacetylase 1; assay: Inhibition of HDAC1 in human HeLa cells incubated for 72 hrs by ELISA; type: cell-based
[19] = molecular target: T1, Protein deacetylase HDAC6; assay: Inhibition of HDAC6 in human HeLa cells incubated for 72 hrs by ELISA; type: cell-based
[20] = molecular target: Serine/threonine-protein kinase B-raf (Homo sapiens, UniProt P15056); assay: Inhibition of wild type BRAF (unknown origin)
RPMI-8226 = assay: Antiproliferative activity against human RPMI-8226 cells assessed as inhibition of cell growth incubated for 48 hrs by MTT assay; type: functional, cell-based; conditions: RPMI-8226, 48 h
U-266 = assay: cells; type: functional, cell-based; conditions: Homo sapiens, U-266, 48 h
MM1.S = assay: Antiproliferative activity against human MM1.S cells assessed as inhibition of cell growth incubated for 48 hrs by MTT assay; type: functional, cell-based
[21] = Cytotoxicity against HEK293 cells assessed as inhibition of cell growth incubated for 48 hrs by MTT assay; type: toxicity, cell-based; conditions: human
[22] = Cytotoxicity against human L02 cells assessed as inhibition of cell growth incubated for 48 hrs by MTT assay; type: toxicity, cell-based
U-87 MG = assay: Antiproliferative activity against human U-87 MG cells; type: functional, cell-based, U-87MG ATCC
SCC-25 = assay: Antiproliferative activity against human SCC-25 cells; type: functional, cell-based
[23] = Cytotoxicity against HEK293T cells; type: toxicity, cell-based, HEK-293T; conditions: human

T2 sequence (Q13547 whole entry): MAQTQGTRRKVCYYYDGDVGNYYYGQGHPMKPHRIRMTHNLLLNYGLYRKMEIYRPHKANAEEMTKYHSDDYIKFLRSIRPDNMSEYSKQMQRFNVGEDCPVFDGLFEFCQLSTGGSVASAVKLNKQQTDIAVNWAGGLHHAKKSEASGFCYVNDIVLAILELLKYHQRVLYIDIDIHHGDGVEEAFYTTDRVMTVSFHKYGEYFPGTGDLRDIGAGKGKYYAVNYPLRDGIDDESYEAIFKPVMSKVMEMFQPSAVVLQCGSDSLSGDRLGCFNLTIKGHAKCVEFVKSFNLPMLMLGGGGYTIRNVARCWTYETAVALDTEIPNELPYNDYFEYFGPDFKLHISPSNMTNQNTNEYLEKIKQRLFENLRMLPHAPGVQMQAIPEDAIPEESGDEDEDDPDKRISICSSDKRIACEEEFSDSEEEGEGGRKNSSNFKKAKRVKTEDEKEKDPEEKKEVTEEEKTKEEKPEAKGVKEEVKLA
Chain of Serine/threonine-protein kinase B-raf (P15056 whole entry): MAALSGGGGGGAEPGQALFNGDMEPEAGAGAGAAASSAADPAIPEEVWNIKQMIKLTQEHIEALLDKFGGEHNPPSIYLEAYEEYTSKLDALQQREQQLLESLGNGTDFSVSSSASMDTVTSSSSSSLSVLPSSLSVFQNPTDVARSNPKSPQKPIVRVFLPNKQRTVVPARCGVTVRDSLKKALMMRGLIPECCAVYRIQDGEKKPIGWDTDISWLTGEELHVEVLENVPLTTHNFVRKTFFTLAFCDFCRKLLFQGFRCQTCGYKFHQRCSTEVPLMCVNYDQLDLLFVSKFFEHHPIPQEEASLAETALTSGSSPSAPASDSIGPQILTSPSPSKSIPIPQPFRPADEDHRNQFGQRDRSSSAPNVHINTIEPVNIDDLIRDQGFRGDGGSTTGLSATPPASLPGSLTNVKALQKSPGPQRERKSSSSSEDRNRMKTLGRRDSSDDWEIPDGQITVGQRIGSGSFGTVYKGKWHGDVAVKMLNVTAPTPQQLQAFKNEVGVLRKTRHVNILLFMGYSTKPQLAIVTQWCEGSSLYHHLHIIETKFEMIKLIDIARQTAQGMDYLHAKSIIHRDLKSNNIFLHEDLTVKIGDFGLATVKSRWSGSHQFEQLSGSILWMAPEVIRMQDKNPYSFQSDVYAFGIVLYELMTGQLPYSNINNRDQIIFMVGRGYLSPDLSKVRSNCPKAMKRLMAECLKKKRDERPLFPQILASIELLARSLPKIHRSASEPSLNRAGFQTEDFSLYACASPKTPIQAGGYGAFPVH
Chain of Tyrosine-protein kinase JAK2 (O60674 whole entry): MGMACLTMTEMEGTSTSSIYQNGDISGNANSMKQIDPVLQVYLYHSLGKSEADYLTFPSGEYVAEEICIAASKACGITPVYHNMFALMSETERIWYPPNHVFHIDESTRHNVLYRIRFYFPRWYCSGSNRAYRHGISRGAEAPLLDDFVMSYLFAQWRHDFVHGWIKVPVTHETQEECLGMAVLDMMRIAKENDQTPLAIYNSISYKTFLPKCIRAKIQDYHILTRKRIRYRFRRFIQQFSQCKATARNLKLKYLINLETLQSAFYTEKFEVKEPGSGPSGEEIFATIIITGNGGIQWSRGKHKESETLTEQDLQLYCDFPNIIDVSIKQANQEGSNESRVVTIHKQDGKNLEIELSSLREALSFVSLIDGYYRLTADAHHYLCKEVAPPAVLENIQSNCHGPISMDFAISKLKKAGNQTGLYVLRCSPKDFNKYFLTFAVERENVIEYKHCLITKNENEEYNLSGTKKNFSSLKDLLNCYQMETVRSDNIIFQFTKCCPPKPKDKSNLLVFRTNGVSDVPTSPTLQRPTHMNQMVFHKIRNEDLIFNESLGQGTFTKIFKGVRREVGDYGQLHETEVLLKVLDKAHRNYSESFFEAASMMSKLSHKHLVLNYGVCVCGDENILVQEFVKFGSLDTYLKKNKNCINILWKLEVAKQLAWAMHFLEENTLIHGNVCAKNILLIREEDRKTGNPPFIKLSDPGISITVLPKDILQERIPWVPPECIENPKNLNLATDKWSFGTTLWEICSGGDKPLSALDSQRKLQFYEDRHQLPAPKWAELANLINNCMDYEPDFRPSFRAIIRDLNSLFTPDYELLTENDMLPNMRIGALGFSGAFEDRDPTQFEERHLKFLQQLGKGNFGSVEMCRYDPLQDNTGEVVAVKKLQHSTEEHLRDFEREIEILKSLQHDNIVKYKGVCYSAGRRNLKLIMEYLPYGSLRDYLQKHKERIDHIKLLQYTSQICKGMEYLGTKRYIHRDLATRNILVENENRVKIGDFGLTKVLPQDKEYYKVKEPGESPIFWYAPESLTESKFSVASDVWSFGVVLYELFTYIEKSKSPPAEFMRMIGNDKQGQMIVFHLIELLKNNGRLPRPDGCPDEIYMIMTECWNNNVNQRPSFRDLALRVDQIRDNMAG

Question: For O=C(/C=C/c1ccc2c(=O)n(Cc3ccc(Cl)cc3)cnc2c1)NO, which IC50 (SW-620) is on record?
Answer: The IC50 was 670 nM.

Question: And the IC50 (PC-3)?
Answer: The IC50 was 670 nM.

Question: And the IC50 (NCI-H23)?
Answer: The IC50 was 670 nM.

Question: What about the IC50 [1] of the same compound?
Answer: The IC50 was 47 nM.

Question: With COc1ccc(-c2ocnc2-c2cc(OC)c(OC)c(OC)c2)cc1OCCCCCC(=O)NO as the compound, how does the IC50 [2] read?
Answer: Its IC50 is about 1000 nM.

Question: What about the IC50 (HCT-116 [3]) of the same compound?
Answer: Its IC50 is 610 nM.

Question: What about the IC50 (HCT 116 TP53(-/-)) of the same compound?
Answer: The IC50 was 610 nM.

Question: And the IC50 (518A2)?
Answer: Its IC50 is 610 nM.

Question: What about the IC50 (Huh-7) of the same compound?
Answer: Its IC50 is 610 nM.

Question: What about the IC50 (HepG2 [4]) of the same compound?
Answer: Its IC50 is 610 nM.

Question: What does the source list for CNC(=O)c1ccccc1Nc1nc(Nc2ccc(N3CCOCC3)cc2OC)ncc1Cl?
Answer: IC50 (KYSE-450): 719 nM; inhibition in vivo at 20 mg/kg (MGC-803): 22.3%; IC50 (HCT-116 [5]): 719 nM

Question: Which results are given for CCCC(CCC)C(=O)O [VALPROIC ACID]?
Answer: IC50 (HepG2 [6]): 4660 nM; IC50 (HCT-116 [7]): 4660 nM; IC50 (MCF7 [8]): 4660 nM; IC50 (HeLa [9]): 4660 nM

Question: With O=C(Cc1ccc(C(=O)NO)cc1)Nc1ccc2ncnc(Nc3ccc(I)cc3)c2c1 as the compound, how does the IC50 [2] read?
Answer: Its IC50 is 16300 nM.

Question: What about the IC50 (A549 [10]) of the same compound?
Answer: Its IC50 is 2200 nM.

Question: And the IC50 (MDA-MB-231)?
Answer: The IC50 was 2200 nM.

Question: And the IC50 (HL-60)?
Answer: The IC50 was 2200 nM.

Question: What about the IC50 (A-375) of the same compound?
Answer: The IC50 was 2200 nM.

Question: What about the IC50 (SGC-7901) of the same compound?
Answer: Its IC50 is 2200 nM.

Question: What about the IC50 (HCT-116 [5]) of the same compound?
Answer: Its IC50 is 2200 nM.

Question: And the IC50 (MCF7 [11])?
Answer: Its IC50 is 2200 nM.

Question: Which IC50 (A549 [10]) does the source give for Cc1cccc(Nc2nc(Nc3ccc(NC(=O)CCCCCCC(=O)NO)cc3)ncc2C)c1 here?
Answer: Its IC50 is 370 nM.

Question: And the IC50 (HepG2 [12])?
Answer: Its IC50 is 370 nM.

Question: What about the IC50 (MDA-MB-231) of the same compound?
Answer: The IC50 was 370 nM.

Question: And the IC50 (Jurkat)?
Answer: The IC50 was 370 nM.

Question: And the IC50 (Histone deacetylase 1 [13])?
Answer: The IC50 was 2.2 nM.

Question: And the IC50 [14]?
Answer: The IC50 was 0.6 nM.

Question: With CC(=O)c1c(-c2ccc([N+](=O)[O-])cc2)cn(CCCCCC(=O)NO)c1C as the compound, how does the GI50 (K562) read?
Answer: The GI50 was under 10000 nM.

Question: And the GI50 (A549 [15])?
Answer: Its GI50 is under 10000 nM.

Question: And the GI50 (MCF7 [16])?
Answer: The GI50 was under 10000 nM.

Question: What about the GI50 (HeLa [17]) of the same compound?
Answer: Its GI50 is under 10000 nM.

Question: And the IC50 (Histone deacetylase 1 [18])?
Answer: Its IC50 is 52 nM.

Question: And the IC50 [19]?
Answer: Its IC50 is 52 nM.

Question: Which results are given for CC(C)(C)c1nc(-c2cccc(NS(=O)(=O)c3c(F)cccc3F)c2F)c(-c2ccnc(NCCCCCCC(=O)NO)n2)s1?
Answer: IC50 [2]: 15.6 nM; IC50 (Histone deacetylase 1 [13]): 15.6 nM; IC50 [20]: 1.71 nM; IC50 (HCT-116 [5]): 310 nM

Question: With COc1ccc(-c2cn(CCCCCC(=O)NO)c(C)c2C(C)=O)cc1 as the compound, how does the GI50 (K562) read?
Answer: Its GI50 is under 10000 nM.

Question: What about the GI50 (A549 [15]) of the same compound?
Answer: Its GI50 is under 10000 nM.

Question: And the GI50 (MCF7 [16])?
Answer: The GI50 was under 10000 nM.

Question: And the GI50 (HeLa [17])?
Answer: The GI50 was under 10000 nM.

Question: And the IC50 (Histone deacetylase 1 [18])?
Answer: Its IC50 is 52 nM.

Question: What about the IC50 [19] of the same compound?
Answer: Its IC50 is 52 nM.

Question: Which IC50 (RPMI-8226) does the source give for CN1CCc2c(c3ccccc3n2Cc2ccc(C(=O)NO)cc2)C1 [TUBASTATIN A] here?
Answer: Its IC50 is 9450 nM.

Question: And the IC50 (U-266)?
Answer: The IC50 was 9450 nM.

Question: What about the IC50 (MM1.S) of the same compound?
Answer: Its IC50 is 9450 nM.

Question: Which IC50 [2] does the source give for O=C(NO)c1c(Cl)cc2c(c1Cl)CCN(C(=O)c1cc3ccccc3[nH]1)C2 here?
Answer: The IC50 was 0.2 nM.

Question: What about the IC50 (U-87 MG) of the same compound?
Answer: The IC50 was 3110 nM.

Question: What about the IC50 (SCC-25) of the same compound?
Answer: The IC50 was 3110 nM.

Question: What about the IC50 [23] of the same compound?
Answer: The IC50 was 56900 nM.

Question: What about the IC50 (MCF7 [11]) of the same compound?
Answer: Its IC50 is 3110 nM.
